Non-standard residues stand in square brackets, D forms with d. Residues, ends and D or L forms follow the SMILES beside them. Aib = CC(C)(N)C(=O)O Some results are limits rather than exact numbers.

In the assay the test system is pancreatic β cells. Put plainly: glucose-stimulated insulin secretion (GSIS) assay. It counts as cell-based. As to conditions: GA targeting peptide; insulin secretion from pancreatic β cell cultures in vitro with glucose. The method, then:
Briefly, glucose and GA targeting peptide was added at various concentrations to pancreatic β cell cultures, and insulin secretion was detected by measuring insulin levels over time. EC50 was calculated for each peptide.
The ability of these GA targeting agent-linker conjugates to stimulate […] secretion in vitro was measured using the GSIS assay described in Example 27. […] Each of these peptides contained a side-chain modified Lys residue according to the scheme illustrated in FIG. 30 at a different position.
For orientation: EC50 means the concentration at which the effect is half-maximal. `CC[C@H](C)[C@H](NC(=O)[C@H](Cc1ccccc1)NC(=O)[C@H](CCC(=O)O)NC(=O)[C@H](CCCCN)NC(=O)[C@H](C)NC(=O)[C@H](C)NC(=O)[C@H](CCC(N)=O)NC(=O)CNC(=O)[C@H](CCC(=O)O)NC(=O)[C@H](Cc1ccc(O)cc1)NC(=O)[C@H](Cc1ccc(O)cc1)NC(=O)[C@H](CO)NC(=O)[C@H](CO)NC(=O)[C@@H](NC(=O)[C@H](CC(=O)O)NC(=O)[C@H](CO)NC(=O)[C@@H](NC(=O)[C@H](Cc1ccccc1)NC(=O)[C@@H](NC(=O)CNC(=O)[C@H](CCC(=O)O)NC(=O)C(C)(C)NC(=O)[C@@H](N)Cc1c[nH]cn1)[C@@H](C)O)[C@@H](C)O)C(C)C)C(=O)N[C@@H](C)C(=O)N[C@@H](Cc1c[nH]c2ccccc12)C(=O)N[C@@H](CC(C)C)C(=O)N[C@H](C(=O)N[C@@H](CCCCN)C(=O)NC(C)(C)C(=O)N[C@@H](CCCNC(=N)N)C(N)=O)C(C)C` [SEQ ID NO: 43] (H-H[Aib]EGTFTSDVSSYYEGQAAKEFIAWLVK[Aib]R-NH2) had an EC50 of under 10 µM. In turn, `CC[C@H](C)[C@H](NC(=O)[C@H](Cc1ccccc1)NC(=O)[C@H](CCC(=O)O)NC(=O)[C@H](CCCCN)NC(=O)[C@H](C)NC(=O)[C@H](C)NC(=O)[C@H](CCC(N)=O)NC(=O)CNC(=O)[C@H](CCC(=O)O)NC(=O)[C@H](Cc1c[nH]c2ccccc12)NC(=O)[C@H](Cc1ccc(O)cc1)NC(=O)[C@H](CO)NC(=O)[C@H](CO)NC(=O)[C@@H](NC(=O)[C@H](CC(=O)O)NC(=O)[C@H](CO)NC(=O)[C@@H](NC(=O)[C@H](Cc1ccccc1)NC(=O)[C@@H](NC(=O)CNC(=O)[C@H](CCC(=O)O)NC(=O)C(C)(C)NC(=O)[C@@H](N)Cc1c[nH]cn1)[C@@H](C)O)[C@@H](C)O)C(C)C)C(=O)N[C@@H](C)C(=O)N[C@@H](Cc1c[nH]c2ccccc12)C(=O)N[C@@H](CC(C)C)C(=O)N[C@H](C(=O)N[C@@H](CCCCN)C(=O)NC(C)(C)C(=O)N[C@@H](CCCNC(=N)N)C(N)=O)C(C)C` [SEQ ID NO: 44] (H-H[Aib]EGTFTSDVSSYWEGQAAKEFIAWLVK[Aib]R-NH2) returned an EC50 of under 10 µM. As for `CC[C@H](C)[C@H](NC(=O)[C@H](Cc1ccccc1)NC(=O)[C@H](CCC(=O)O)NC(=O)[C@H](CCCCN)NC(=O)[C@H](C)NC(=O)[C@H](C)NC(=O)[C@H](CCC(N)=O)NC(=O)[C@H](CCC(=O)O)NC(=O)[C@H](CCC(=O)O)NC(=O)[C@H](CC(C)C)NC(=O)[C@H](Cc1ccc(O)cc1)NC(=O)[C@H](CO)NC(=O)[C@H](CO)NC(=O)[C@@H](NC(=O)[C@H](CC(=O)O)NC(=O)[C@H](CO)NC(=O)[C@@H](NC(=O)[C@H](Cc1ccccc1)NC(=O)[C@@H](NC(=O)CNC(=O)[C@H](CCC(=O)O)NC(=O)C(C)(C)NC(=O)[C@@H](N)Cc1c[nH]cn1)[C@@H](C)O)[C@@H](C)O)C(C)C)C(=O)N[C@@H](C)C(=O)N[C@@H](Cc1c[nH]c2ccccc12)C(=O)N[C@@H](CC(C)C)C(=O)N[C@H](C(=O)N[C@@H](CCCCN)C(=O)NC(C)(C)C(=O)N[C@@H](CCCNC(=N)N)C(N)=O)C(C)C` [SEQ ID NO: 45] (H-H[Aib]EGTFTSDVSSYLEEQAAKEFIAWLVK[Aib]R-NH2), the figure is under 10 µM. With `CC[C@H](C)[C@H](NC(=O)[C@H](Cc1ccccc1)NC(=O)[C@H](CCC(=O)O)NC(=O)[C@H](CCCCN)NC(=O)[C@H](C)NC(=O)[C@H](C)NC(=O)[C@H](CCC(N)=O)NC(=O)[C@H](CC(=O)O)NC(=O)[C@H](CCC(=O)O)NC(=O)[C@H](CC(C)C)NC(=O)[C@H](Cc1ccc(O)cc1)NC(=O)[C@H](CO)NC(=O)[C@H](CO)NC(=O)[C@@H](NC(=O)[C@H](CC(=O)O)NC(=O)[C@H](CO)NC(=O)[C@@H](NC(=O)[C@H](Cc1ccccc1)NC(=O)[C@@H](NC(=O)CNC(=O)[C@H](CCC(=O)O)NC(=O)C(C)(C)NC(=O)[C@@H](N)Cc1c[nH]cn1)[C@@H](C)O)[C@@H](C)O)C(C)C)C(=O)N[C@@H](C)C(=O)N[C@@H](Cc1c[nH]c2ccccc12)C(=O)N[C@@H](CC(C)C)C(=O)N[C@H](C(=O)N[C@@H](CCCCN)C(=O)NC(C)(C)C(=O)N[C@@H](CCCNC(=N)N)C(N)=O)C(C)C` [SEQ ID NO: 46] (H-H[Aib]EGTFTSDVSSYLEDQAAKEFIAWLVK[Aib]R-NH2) the figure was under 10 µM; with `CC[C@H](C)[C@H](NC(=O)[C@H](Cc1ccccc1)NC(=O)[C@H](CCC(=O)O)NC(=O)[C@H](CCCCN)NC(=O)[C@H](C)NC(=O)[C@H](C)NC(=O)[C@H](CCC(N)=O)NC(=O)[C@H](CCCCN)NC(=O)[C@H](CCC(=O)O)NC(=O)[C@H](CC(C)C)NC(=O)[C@H](Cc1ccc(O)cc1)NC(=O)[C@H](CO)NC(=O)[C@H](CO)NC(=O)[C@@H](NC(=O)[C@H](CC(=O)O)NC(=O)[C@H](CO)NC(=O)[C@@H](NC(=O)[C@H](Cc1ccccc1)NC(=O)[C@@H](NC(=O)CNC(=O)[C@H](CCC(=O)O)NC(=O)C(C)(C)NC(=O)[C@@H](N)Cc1c[nH]cn1)[C@@H](C)O)[C@@H](C)O)C(C)C)C(=O)N[C@@H](C)C(=O)N[C@@H](Cc1c[nH]c2ccccc12)C(=O)N[C@@H](CC(C)C)C(=O)N[C@H](C(=O)N[C@@H](CCCCN)C(=O)NC(C)(C)C(=O)N[C@@H](CCCNC(=N)N)C(N)=O)C(C)C` [SEQ ID NO: 47] (H-H[Aib]EGTFTSDVSSYLEKQAAKEFIAWLVK[Aib]R-NH2), under 10 µM; with `CC[C@H](C)[C@H](NC(=O)[C@H](C)NC(=O)[C@H](CCC(N)=O)NC(=O)CNC(=O)[C@H](CCC(=O)O)NC(=O)[C@H](CC(C)C)NC(=O)[C@H](Cc1ccc(O)cc1)NC(=O)[C@H](CO)NC(=O)[C@H](CO)NC(=O)[C@@H](NC(=O)[C@H](CC(=O)O)NC(=O)[C@H](CO)NC(=O)[C@@H](NC(=O)[C@H](Cc1ccccc1)NC(=O)[C@@H](NC(=O)CNC(=O)[C@H](CCC(=O)O)NC(=O)C(C)(C)NC(=O)[C@@H](N)Cc1c[nH]cn1)[C@@H](C)O)[C@@H](C)O)C(C)C)C(=O)N[C@@H](CCCCN)C(=O)N[C@@H](CCC(=O)O)C(=O)N[C@@H](Cc1ccccc1)C(=O)N[C@H](C(=O)N[C@@H](C)C(=O)N[C@@H](Cc1c[nH]c2ccccc12)C(=O)N[C@@H](CC(C)C)C(=O)N[C@H](C(=O)N[C@@H](CCCCN)C(=O)NC(C)(C)C(=O)N[C@@H](CCCNC(=N)N)C(N)=O)C(C)C)[C@@H](C)CC` [SEQ ID NO: 49] (H-H[Aib]EGTFTSDVSSYLEGQAIKEFIAWLVK[Aib]R-NH2), under 10 µM. With `CC[C@H](C)[C@H](NC(=O)[C@H](Cc1ccccc1)NC(=O)[C@H](CCC(=O)O)NC(=O)[C@H](CCCCN)NC(=O)[C@H](CC(C)C)NC(=O)[C@H](C)NC(=O)[C@H](CCC(N)=O)NC(=O)CNC(=O)[C@H](CCC(=O)O)NC(=O)[C@H](CC(C)C)NC(=O)[C@H](Cc1ccc(O)cc1)NC(=O)[C@H](CO)NC(=O)[C@H](CO)NC(=O)[C@@H](NC(=O)[C@H](CC(=O)O)NC(=O)[C@H](CO)NC(=O)[C@@H](NC(=O)[C@H](Cc1ccccc1)NC(=O)[C@@H](NC(=O)CNC(=O)[C@H](CCC(=O)O)NC(=O)C(C)(C)NC(=O)[C@@H](N)Cc1c[nH]cn1)[C@@H](C)O)[C@@H](C)O)C(C)C)C(=O)N[C@@H](C)C(=O)N[C@@H](Cc1c[nH]c2ccccc12)C(=O)N[C@@H](CC(C)C)C(=O)N[C@H](C(=O)N[C@@H](CCCCN)C(=O)NC(C)(C)C(=O)N[C@@H](CCCNC(=N)N)C(N)=O)C(C)C` [SEQ ID NO: 50] (H-H[Aib]EGTFTSDVSSYLEGQALKEFIAWLVK[Aib]R-NH2) the figure was under 10 µM. Regarding `CC[C@H](C)[C@H](NC(=O)[C@H](Cc1ccccc1)NC(=O)[C@H](CCC(=O)O)NC(=O)[C@H](CCCNC(=N)N)NC(=O)[C@H](C)NC(=O)[C@H](C)NC(=O)[C@H](CCC(N)=O)NC(=O)CNC(=O)[C@H](CCC(=O)O)NC(=O)[C@H](CC(C)C)NC(=O)[C@H](Cc1ccc(O)cc1)NC(=O)[C@H](CO)NC(=O)[C@H](CO)NC(=O)[C@@H](NC(=O)[C@H](CC(=O)O)NC(=O)[C@H](CO)NC(=O)[C@@H](NC(=O)[C@H](Cc1ccccc1)NC(=O)[C@@H](NC(=O)CNC(=O)[C@H](CCC(=O)O)NC(=O)C(C)(C)NC(=O)[C@@H](N)Cc1c[nH]cn1)[C@@H](C)O)[C@@H](C)O)C(C)C)C(=O)N[C@@H](C)C(=O)N[C@@H](Cc1c[nH]c2ccccc12)C(=O)N[C@@H](CC(C)C)C(=O)N[C@H](C(=O)N[C@@H](CCCCN)C(=O)NC(C)(C)C(=O)N[C@@H](CCCNC(=N)N)C(N)=O)C(C)C` [SEQ ID NO: 51] (H-H[Aib]EGTFTSDVSSYLEGQAAREFIAWLVK[Aib]R-NH2), the EC50 is under 10 µM. With `CC[C@H](C)[C@H](NC(=O)[C@H](Cc1ccccc1)NC(=O)[C@H](CCC(=O)O)NC(=O)[C@H](CCCCN)NC(=O)[C@H](C)NC(=O)[C@H](C)NC(=O)[C@H](CCC(N)=O)NC(=O)CNC(=O)[C@H](CCC(=O)O)NC(=O)[C@H](CC(C)C)NC(=O)[C@H](Cc1ccc(O)cc1)NC(=O)[C@H](CO)NC(=O)[C@H](CO)NC(=O)[C@@H](NC(=O)[C@H](CC(=O)O)NC(=O)[C@H](CO)NC(=O)[C@@H](NC(=O)[C@H](Cc1ccccc1)NC(=O)[C@@H](NC(=O)CNC(=O)[C@H](CCC(=O)O)NC(=O)C(C)(C)NC(=O)[C@@H](N)Cc1c[nH]cn1)[C@@H](C)O)[C@@H](C)O)C(C)C)C(=O)N[C@@H](C)C(=O)N[C@@H](Cc1ccccc1)C(=O)N[C@@H](CC(C)C)C(=O)N[C@H](C(=O)N[C@@H](CCCCN)C(=O)NC(C)(C)C(=O)N[C@@H](CCCNC(=N)N)C(N)=O)C(C)C` [SEQ ID NO: 53] the figure was under 10 µM. As for `CC[C@H](C)[C@H](NC(=O)[C@H](Cc1ccccc1)NC(=O)[C@H](CCC(=O)O)NC(=O)[C@H](CCCCN)NC(=O)[C@H](C)NC(=O)[C@H](C)NC(=O)[C@H](CCC(N)=O)NC(=O)CNC(=O)[C@H](CCC(=O)O)NC(=O)[C@H](CC(C)C)NC(=O)[C@H](Cc1ccc(O)cc1)NC(=O)[C@H](CO)NC(=O)[C@H](CO)NC(=O)[C@@H](NC(=O)[C@H](CC(=O)O)NC(=O)[C@H](CO)NC(=O)[C@@H](NC(=O)[C@H](Cc1ccccc1)NC(=O)[C@@H](NC(=O)CNC(=O)[C@H](CCC(=O)O)NC(=O)C(C)(C)NC(=O)[C@@H](N)Cc1c[nH]cn1)[C@@H](C)O)[C@@H](C)O)C(C)C)C(=O)N[C@@H](C)C(=O)N[C@@H](Cc1c[nH]c2ccccc12)C(=O)N[C@@H](CC(C)C)C(=O)N[C@H](C(=O)N[C@@H](CCCCN)C(=O)NC(C)(C)C(=O)N[C@@H](CCCNC(=N)N)C(N)=O)[C@@H](C)CC` [SEQ ID NO: 54], the figure is under 10 µM.

The record behind these values is US20090098130A1, “GLUCAGON-LIKE PROTEIN-1 RECEPTOR (GLP-1R) AGONIST COMPOUNDS” (priority 2007, published 2009).
